# Test results from paper PMC9890698 (BMC Biology, 2023).
# “And” between values parts separate entries of the source, which are not always exact repeats. Identical values can stand only once. *1 amine or outer side, *2 acyl side, *3 side chain or, on linkers, in order; H or OH if unused. Where a SMILES comes first, the peptide text is derived from it. Bridges are numbered along the chain shown (N, C = ends). [ ]: non-standard residue; d: D form. The star is where a group is joined. Leu(3R-OH,Nα-propionyl) = CCC(=O)N[C@H](C(=O)*)[C@H](O)C(C)C; X1 = CC(C)[C@@H](O[*:3])[C@H](N[*:1])C(=O)[*:2]; NMeT = CN[C@H](C(=O)O)[C@@H](C)O; dPhLac = O=C(O)[C@H](O)Cc1ccccc1; NMeA = CN[C@@H](C)C(=O)O; NMeDha = C=C(NC)C(=O)O
# What was measured:
# P2Y12-R = conditions: result in words; cited from earlier work
# [1] = system: washed human platelets (P2Y1-R/Gαq signaling); experiment: IP1 accumulation assay (HTRF) in washed human platelets; type: cell-based; conditions: Gq inhibitor 100 nM, 2 h
# Experimental: (§1) As performed in HEK293T cells, we thus quantified intracellular IP1 levels to monitor Gαq protein-dependent signaling pathways.
# Human platelets were prepared from adult healthy volunteers free of antiplatelet or anti-inflammatory medication since at least ten days. […] After two steps of centrifugation and suspension in Tyrode’s buffer (140 mM NaCl, 5 mM KCl, 5 mM KH2PO4, 1 mM MgSO4, 10 mM HEPES, 5 mM glucose and 0.35% (w/v) BSA, pH 6,7), washed platelets were suspended in the same buffer adjusted to pH 7.4 and containing 1 mM CaCl2. The final platelet suspension was adjusted to 3.10^8 platelets/mL and rested for 45 min in the presence of 0.02 U/mL apyrase and 10 μM indomethacin at 37 °C prior experiments. PGI2 (0.5 μM) was added before centrifugation steps to avoid platelet activation.
# (§2) Quantification of intracellular IP1 was performed using the HTRF (Homogeneous Time Resolved Fluorescence) IP1 competitive immunoassay (IP-One Tb kit. Cisbio. France) according to the manufacturer’s instructions. Briefly, 20,000 HEK293T/17 cells or 3.10^6 platelets were distributed in a 384-well white microplate (Greiner) and incubated with the indicated molecules for 30 min or 2 h at 37 °C in the presence of 50 mM of LiCl to prevent IP1 degradation. After addition of d2-labeled IP1 (acceptor) and anti-IP1-Cryptate (donor) for 1 h, the specific FRET signals were calculated by the fluorescence ratio of the acceptor and donor emission signal (665/620 nm) collected using a modified Infinite F500 (Tecan Group Ltd). Conversion of the HTRF ratio of each sample into IP1 concentrations was performed on the basis of a standard curve to determine the linear dynamic range of the assay.
# HEK293T cells (pcDNA3.1) = experiment: IP1 accumulation assay (HTRF) in control HEK293T cells (pcDNA3.1); type: cell-based, Human; conditions: pcDNA3.1, Gq inhibitor 100 nM, 2 h
# From the text: Since Gαq protein activation is known to induce PLC activation leading to IP3 and subsequent cytosolic calcium release, we analyzed the constitutive Gαq-dependent P2Y1-R signaling by quantifying intracellular inositol monophosphate (IP1) using a monoclonal antibody-based competitive ELISA. IP1 is a downstream metabolite of IP3 that accumulates in cells following Gαq protein-coupled receptor activation, making it an ideal readout for Gαq protein-dependent signaling pathways.
# as §2
# [2] = system: washed murine platelets (P2Y1-R/Gαq signaling); experiment: IP1 accumulation assay (HTRF) in washed murine platelets; type: cell-based, mouse; conditions: Gq inhibitor 100 nM, 2 h
# Experimental: as §1
# Platelet-rich plasma (PRP) was obtained by mixing blood with 1 volume of modified Hepes Tyrode’s buffer (137 mM NaCl, 2 mM KCl, 12 mM NaHCO3, 0.3 mM NaH2PO4, 1 mM MgCl2, 2 mM CaCl2, 5.5 mM glucose, 5 mM HEPES, and 0.35% (w/v) BSA, pH 6.7) followed by a centrifugation at 150 g for 2 min at 37 °C. Then, platelets were pelleted by centrifugation at 1000 g for 4 min, resuspended in modified Hepes Tyrode’s buffer (pH 7.4), adjusted to 3.10^8 platelets/mL in the presence of 0.02 U/mL of apyrase and 10 μM indomethacin and rested for 45 minutes at 37°C before platelet stimulation. PGI2 (0.5 μM) was added before centrifugation steps to avoid platelet activation.
# as §2
# Human P2Y1-R = molecular target: T1, Human P2Y1-R (Homo sapiens, UniProt P47900); experiment: IP1 accumulation assay (HTRF) in HEK293T cells expressing P2Y1-R; type: cell-based; conditions: ADP 100 μM, MRS2179 10 μM, Gq inhibitor 100 nM, 2 h, result in words
# T1 construct: expressed in transfected cells; host or cells: HEK293T/17
# washed human platelets = conditions: TRAP stimulation, result in words
# Experimental: For platelet dense granule secretion, washed human platelets were stimulated with 50 μM TRAP (10 min, 37 °C) and stained with conjugated anti-CD63 FITC-conjugated antibody (BD Biosciences reference 557288. 1:5) for 15 min at room temperature. The platelets were then diluted into 1 mL PBS and samples were then kept in the dark until analysis by flow cytometry. The results are expressed as median fluorescence intensity (MFI).
# T1 sequence (P47900 whole entry): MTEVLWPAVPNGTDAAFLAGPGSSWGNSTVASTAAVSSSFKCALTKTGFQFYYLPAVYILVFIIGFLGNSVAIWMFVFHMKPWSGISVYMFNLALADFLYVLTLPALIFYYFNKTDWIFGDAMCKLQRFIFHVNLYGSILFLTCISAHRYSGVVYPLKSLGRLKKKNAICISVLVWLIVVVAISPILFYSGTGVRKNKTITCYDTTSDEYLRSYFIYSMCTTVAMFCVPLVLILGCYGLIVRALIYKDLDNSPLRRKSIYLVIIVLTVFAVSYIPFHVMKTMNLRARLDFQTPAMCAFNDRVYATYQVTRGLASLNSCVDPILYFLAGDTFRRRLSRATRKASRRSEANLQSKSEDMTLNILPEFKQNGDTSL
molecule,measurement,setting,value
CCCSc1nc(N[C@@H]2C[C@H]2c2ccc(F)c(F)c2)c2nnn([C@@H]3C[C@H](OCCO)[C@@H](O)[C@H]3O)c2n1 [ticagrelor],Behaviour at P2Y12-R constitutive signaling,P2Y12-R,inverse agonists
"C=C1C(=O)N[C@@H](C)C(=O)N(C)[C@@H](C)C(=O)N[C@@H]([C@H](OC(=O)[C@@H](NC(=O)CC)[C@H](O)C(C)C)C(C)C)C(=O)N(C)[C@@H]([C@@H](C)OC)C(=O)O[C@H](C(C)C)[C@H](NC(C)=O)C(=O)O[C@H](Cc2ccccc2)C(=O)N1C [FR900359] (Ac-[X1][dPhLac][NMeDha]A[NMeA][X1](Leu(3R-OH,Nα-propionyl))[NMeT](Me); ester 1-C)",IP1 concentration (% matched basal values),"[1]; human platelets, individual donors",19.0758 % matched basal values and 11.9666 % matched basal values and 43.5394 % matched basal values and 60.8621 % matched basal values and 37.3209 % matched basal values and 49.8124 % matched basal values and 75.4834 % matched basal values and 64.9734 % matched basal values and 85.7248 % matched basal values and 88.8134 % matched basal values and 81.06 % matched basal values and 83.4552 % matched basal values and 77.0271 % matched basal values and 36.4555 % matched basal values and 43.6521 % matched basal values and 9.5459 % matched basal values
same,Effect on IP1 levels,"[1]; washed human platelets, ADP 100 μM, antagonists 10 μM, apyrase 0.02 U/mL, result in words",inhibited
same,IP1 concentration,HEK293T cells (pcDNA3.1),132.385 nM and 158.041 nM and 95.7319 nM and 85.9635 nM and 143.254 nM
same,IP1 concentration (% matched basal values),"[2]; murine platelets, individual mice",27.5986 % matched basal values and 38.7127 % matched basal values and 47.9185 % matched basal values and 40.8858 % matched basal values and 59.9249 % matched basal values and 76.9346 % matched basal values and 9.098 % matched basal values and 14.2482 % matched basal values and 23.5315 % matched basal values and 11.8913 % matched basal values and 61.9938 % matched basal values and 36.9021 % matched basal values and 16.0009 % matched basal values
same,Effect on IP1 levels,"[2]; washed murine platelets, ADP 100 μM, MRS2179 10 μM, apyrase 0.02 U/mL, result in words",inhibited
same,Effect on IP1 production,Human P2Y1-R,significantly reduced
CCCCOC(=O)N1CCN(C(=O)[C@H](CP(=O)(O)O)NC(=O)c2cc(N3CC[C@H](OC)C3)nc(-c3ccccc3)n2)CC1 [selatogrel],Behaviour at P2Y12-R constitutive signaling,P2Y12-R,inverse agonists
CSCCNc1nc(SCCC(F)(F)F)nc2c1ncn2[C@@H]1O[C@H](COP(=O)(O)OP(=O)(O)C(Cl)(Cl)P(=O)(O)O)[C@@H](O)[C@H]1O [cangrelor],Behaviour at P2Y12-R constitutive signaling,P2Y12-R,inverse agonists
thrombin receptor activating peptide [TRAP],CD63 exposure at the platelet surface,washed human platelets,strong exposure of CD63
